According to PubChem BioAssay (NCI):
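48-hour exposure; five concentrations; linearly interpolated endpoints. The concentration for 50% growth inhibition is given as GI50. The concentration for full growth arrest is given as TGI.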

What was measured:
Test in all cases: NCI-60 cell line screen, 48 h
HCT-15 colon = tested on: HCT-15 colon
786-0 renal = tested on: 786-0 renal
SN12C renal = tested on: SN12C renal
M14 melanoma = tested on: M14 melanoma
UACC-257 melanoma = tested on: UACC-257 melanoma
T-47D breast = tested on: T-47D breast
UO-31 renal = tested on: UO-31 renal
OVCAR-8 ovarian = tested on: OVCAR-8 ovarian
SF-295 CNS = tested on: SF-295 CNS
CCRF-CEM leukemia = tested on: CCRF-CEM leukemia
NCI-H522 lung = tested on: NCI-H522 lung
NCI/ADR-RES ovarian = tested on: NCI/ADR-RES ovarian
EKVX NSCLC = tested on: EKVX NSCLC
SK-MEL-28 melanoma = tested on: SK-MEL-28 melanoma
NCI-H226 lung = tested on: NCI-H226 lung
SF-539 CNS = tested on: SF-539 CNS
K-562 leukemia = tested on: K-562 leukemia
SK-MEL-5 melanoma = tested on: SK-MEL-5 melanoma
SK-MEL-2 melanoma = tested on: SK-MEL-2 melanoma
NCI-H23 lung = tested on: NCI-H23 lung
DU-145 prostate = tested on: DU-145 prostate
A549 NSCLC = tested on: A549 NSCLC
LOX IMVI melanoma = tested on: LOX IMVI melanoma
HL-60(TB) leukemia = tested on: HL-60(TB) leukemia
HCC-2998 colon = tested on: HCC-2998 colon
BT-549 breast = tested on: BT-549 breast
ACHN renal = tested on: ACHN renal
TK-10 renal = tested on: TK-10 renal
HS 578T breast = tested on: HS 578T breast
SF-268 CNS = tested on: SF-268 CNS
OVCAR-5 ovarian = tested on: OVCAR-5 ovarian
COLO 205 colon = tested on: COLO 205 colon
SR leukemia = tested on: SR leukemia
SNB-75 CNS = tested on: SNB-75 CNS
MCF7 breast = tested on: MCF7 breast
SNB-19 CNS = tested on: SNB-19 CNS
MDA-MB-231 breast = tested on: MDA-MB-231 breast
MDA-MB-435 = tested on: MDA-MB-435
OVCAR-4 ovarian = tested on: OVCAR-4 ovarian
KM12 colon = tested on: KM12 colon
MOLT-4 leukemia = tested on: MOLT-4 leukemia
RPMI-8226 leukemia = tested on: RPMI-8226 leukemia
SK-OV-3 ovarian = tested on: SK-OV-3 ovarian
MALME-3M melanoma = tested on: MALME-3M melanoma
HOP-62 NSCLC = tested on: HOP-62 NSCLC
OVCAR-3 ovarian = tested on: OVCAR-3 ovarian
CAKI-1 renal = tested on: CAKI-1 renal
U251 CNS = tested on: U251 CNS
SW-620 colon = tested on: SW-620 colon
IGROV1 ovarian = tested on: IGROV1 ovarian
HT29 colon = tested on: HT29 colon
HCT-116 colon = tested on: HCT-116 colon
HOP-92 NSCLC = tested on: HOP-92 NSCLC
UACC-62 melanoma = tested on: UACC-62 melanoma
RXF 393 renal = tested on: RXF 393 renal
NCI-H460 lung = tested on: NCI-H460 lung
PC-3 prostate = tested on: PC-3 prostate
A498 renal = tested on: A498 renal

COC(=O)C(=Cc1ccccc1[N+](=O)[O-])C(=O)OC
GI50 (HCT-15 colon): 2.08 µM
TGI (HCT-15 colon): 10.7 µM
GI50 (786-0 renal): 4.24 µM
TGI (786-0 renal): 14.2 µM
GI50 (SN12C renal): 3.63 µM
TGI (SN12C renal): 18.1 µM
GI50 (M14 melanoma): 3.04 µM
TGI (M14 melanoma): 14 µM
GI50 (UACC-257 melanoma): 4.06 µM
TGI (UACC-257 melanoma): 17.3 µM
GI50 (T-47D breast): 2.12 µM
TGI (T-47D breast): 11 µM
GI50 (UO-31 renal): 2.31 µM
TGI (UO-31 renal): 9.8 µM
GI50 (OVCAR-8 ovarian): 3.53 µM
TGI (OVCAR-8 ovarian): 40.8 µM
GI50 (SF-295 CNS): 4.08 µM
TGI (SF-295 CNS): 17.3 µM
GI50 (CCRF-CEM leukemia): 1.81 µM
TGI (CCRF-CEM leukemia): 5.16 µM
GI50 (NCI-H522 lung): 1.9 µM
TGI (NCI-H522 lung): 6.65 µM
GI50 (NCI/ADR-RES ovarian): 2.31 µM
TGI (NCI/ADR-RES ovarian): 5.77 µM
GI50 (EKVX NSCLC): 4.23 µM
TGI (EKVX NSCLC): 17 µM
GI50 (SK-MEL-28 melanoma): 2.16 µM
TGI (SK-MEL-28 melanoma): 6.06 µM
GI50 (NCI-H226 lung): 8.34 µM
TGI (NCI-H226 lung): 24.8 µM
GI50 (SF-539 CNS): 2.63 µM
TGI (SF-539 CNS): 7.5 µM
GI50 (K-562 leukemia): 2.51 µM
TGI (K-562 leukemia): 9.48 µM
GI50 (SK-MEL-5 melanoma): 2.55 µM
TGI (SK-MEL-5 melanoma): 9.2 µM
GI50 (SK-MEL-2 melanoma): 3.61 µM
TGI (SK-MEL-2 melanoma): 16.4 µM
GI50 (NCI-H23 lung): 2.62 µM
TGI (NCI-H23 lung): 9.83 µM
GI50 (DU-145 prostate): 2.29 µM
TGI (DU-145 prostate): 6.61 µM
GI50 (A549 NSCLC): 3.98 µM
TGI (A549 NSCLC): 21.7 µM
GI50 (LOX IMVI melanoma): 2.08 µM
TGI (LOX IMVI melanoma): 5.88 µM
GI50 (HL-60(TB) leukemia): 2.78 µM
TGI (HL-60(TB) leukemia): > 100 µM
GI50 (HCC-2998 colon): 2.68 µM
TGI (HCC-2998 colon): 7.36 µM
GI50 (BT-549 breast): 7.14 µM
TGI (BT-549 breast): 19.8 µM
GI50 (ACHN renal): 4.33 µM
TGI (ACHN renal): 15.6 µM
GI50 (TK-10 renal): 5.93 µM
TGI (TK-10 renal): 18.1 µM
GI50 (HS 578T breast): 2.04 µM
TGI (HS 578T breast): 8.09 µM
GI50 (SF-268 CNS): 3.06 µM
TGI (SF-268 CNS): 12.7 µM
GI50 (OVCAR-5 ovarian): 3.13 µM
TGI (OVCAR-5 ovarian): 8.35 µM
GI50 (COLO 205 colon): 3.05 µM
TGI (COLO 205 colon): 11 µM
GI50 (SR leukemia): 1.04 µM
TGI (SR leukemia): 4.84 µM
GI50 (SNB-75 CNS): 2.75 µM
TGI (SNB-75 CNS): 15.3 µM
GI50 (MCF7 breast): 2.35 µM
TGI (MCF7 breast): 11.2 µM
GI50 (SNB-19 CNS): 5.41 µM
TGI (SNB-19 CNS): 21.6 µM
GI50 (MDA-MB-231 breast): 3.68 µM
TGI (MDA-MB-231 breast): 13.5 µM
GI50 (MDA-MB-435): 2.26 µM
TGI (MDA-MB-435): 10.2 µM
GI50 (OVCAR-4 ovarian): 3.94 µM
TGI (OVCAR-4 ovarian): 16.1 µM
GI50 (KM12 colon): 2.99 µM
TGI (KM12 colon): 10 µM
GI50 (MOLT-4 leukemia): 2.31 µM
TGI (MOLT-4 leukemia): 7.21 µM
GI50 (RPMI-8226 leukemia): 1.27 µM
TGI (RPMI-8226 leukemia): 3.63 µM
GI50 (SK-OV-3 ovarian): 10.2 µM
TGI (SK-OV-3 ovarian): 21.8 µM
GI50 (MALME-3M melanoma): 4.44 µM
TGI (MALME-3M melanoma): 18.1 µM
GI50 (HOP-62 NSCLC): 13.6 µM
TGI (HOP-62 NSCLC): 27.1 µM
GI50 (OVCAR-3 ovarian): 2.28 µM
TGI (OVCAR-3 ovarian): 5.67 µM
GI50 (CAKI-1 renal): 3.61 µM
TGI (CAKI-1 renal): 14.1 µM
GI50 (U251 CNS): 3.23 µM
TGI (U251 CNS): 13.9 µM
GI50 (SW-620 colon): 3.9 µM
TGI (SW-620 colon): 12.7 µM
GI50 (IGROV1 ovarian): 3.41 µM
TGI (IGROV1 ovarian): 12 µM
GI50 (HT29 colon): 3.54 µM
TGI (HT29 colon): 14.4 µM
GI50 (HCT-116 colon): 2.69 µM
TGI (HCT-116 colon): 9.55 µM
GI50 (HOP-92 NSCLC): 2.38 µM
TGI (HOP-92 NSCLC): 7.4 µM
GI50 (UACC-62 melanoma): 3.79 µM
TGI (UACC-62 melanoma): 15.5 µM
GI50 (RXF 393 renal): 1.87 µM
TGI (RXF 393 renal): 4.3 µM
GI50 (NCI-H460 lung): 3.41 µM
TGI (NCI-H460 lung): 13.7 µM
GI50 (PC-3 prostate): 4.63 µM
TGI (PC-3 prostate): 21.1 µM
GI50 (A498 renal): 2.75 µM
TGI (A498 renal): 8.23 µM

C=C(C(=O)OC1C(CO)OC(OCC2CC[C@@H]3C[C@]4(OC(=O)C3=C)C(C)=CC(=O)C24)C(O)C1O)[C@@H]1CCC(CO)C2C(=O)C=C(C)[C@@]2(O)C1 (some centres undefined)
TGI (HCT-15 colon): 3.1 µM
TGI (786-0 renal): 7.85 µM
TGI (SN12C renal): 5.42 µM
TGI (M14 melanoma): 4.81 µM
TGI (UACC-257 melanoma): 5.17 µM
TGI (T-47D breast): 24.3 µM
TGI (UO-31 renal): 7.98 µM
TGI (OVCAR-8 ovarian): 14.8 µM
TGI (SF-295 CNS): 35 µM
TGI (CCRF-CEM leukemia): 1.3 µM
TGI (NCI-H522 lung): 0.783 µM
TGI (NCI/ADR-RES ovarian): 11.2 µM
TGI (EKVX NSCLC): 8.61 µM
TGI (SK-MEL-28 melanoma): 14.8 µM
TGI (NCI-H226 lung): 20.2 µM
TGI (SF-539 CNS): 10.5 µM
TGI (K-562 leukemia): 31.1 µM
TGI (SK-MEL-5 melanoma): 2.75 µM
TGI (SK-MEL-2 melanoma): 8.29 µM
TGI (NCI-H23 lung): 5.12 µM
TGI (DU-145 prostate): 17.6 µM
TGI (A549 NSCLC): 18 µM
TGI (LOX IMVI melanoma): 6.32 µM
TGI (HL-60(TB) leukemia): 3.76 µM
TGI (HCC-2998 colon): 4.29 µM
TGI (BT-549 breast): 3.52 µM
TGI (ACHN renal): 12.3 µM
TGI (TK-10 renal): 13.1 µM
TGI (HS 578T breast): > 53.1 µM
TGI (SF-268 CNS): 16.1 µM
TGI (OVCAR-5 ovarian): 7.15 µM
TGI (COLO 205 colon): 1.13 µM
TGI (SR leukemia): 11.6 µM
TGI (SNB-75 CNS): 29 µM
TGI (MCF7 breast): 12.8 µM
TGI (SNB-19 CNS): 31.8 µM
TGI (MDA-MB-231 breast): 3.26 µM
TGI (MDA-MB-435): 5.04 µM
TGI (OVCAR-4 ovarian): 20.1 µM
TGI (KM12 colon): 8.31 µM
TGI (MOLT-4 leukemia): 8.41 µM
TGI (RPMI-8226 leukemia): 9.12 µM
TGI (SK-OV-3 ovarian): 55.9 µM
TGI (MALME-3M melanoma): 3.44 µM
TGI (HOP-62 NSCLC): 24.9 µM
TGI (OVCAR-3 ovarian): 14.7 µM
TGI (CAKI-1 renal): 7.93 µM
TGI (U251 CNS): 16 µM
TGI (SW-620 colon): 13.3 µM
TGI (IGROV1 ovarian): 12.6 µM
TGI (HT29 colon): 6.37 µM
TGI (HCT-116 colon): 3.07 µM
TGI (HOP-92 NSCLC): 6.66 µM
TGI (UACC-62 melanoma): 3.35 µM
TGI (RXF 393 renal): 4.14 µM
TGI (NCI-H460 lung): 13.7 µM
TGI (PC-3 prostate): 6.63 µM
TGI (A498 renal): 9.86 µM
